Assays:
[1] = biological target: Serine/threonine-protein kinase Nek5 (Homo sapiens) (UniProt Q6P3R8); assay: Inhibition of T7 bacteriophage fused human NEK5 at 10 uM by KINOMEscan analysis relative to control
[2] = biological target: Calcium/calmodulin-dependent protein kinase type II subunit beta (Homo sapiens) (UniProt Q13554); assay: Inhibition of T7 bacteriophage fused human CAMK2B at 10 uM by KINOMEscan analysis relative to control
[3] = biological target: Mitogen-activated protein kinase kinase kinase 9 (Homo sapiens) (UniProt P80192); assay: Inhibition of T7 bacteriophage fused human MLK1 at 10 uM by KINOMEscan analysis relative to control; values are per cent of control
[4] = test system: eIF-2-alpha kinase GCN2 (Homo sapiens), Q9P2K8 [S808G]; assay: Inhibition of T7 bacteriophage fused human GCN2 S808G mutant Kinase domain-2 at 10 uM by KINOMEscan analysis relative to control
[5] = biological target: Serine/threonine-protein kinase/endoribonuclease IRE1 (Homo sapiens) (UniProt O75460); assay: Inhibition of T7 bacteriophage fused human ERN1 at 10 uM by KINOMEscan analysis relative to control; values are per cent of control
[6] = biological target: Activin receptor type-2A (Homo sapiens) (UniProt P27037); assay: Inhibition of T7 bacteriophage fused human ACVR2A at 10 uM by KINOMEscan analysis relative to control
[7] = biological target: Cyclin-dependent kinase 3 (Homo sapiens) (UniProt Q00526); assay: Inhibition of T7 bacteriophage fused human CDK3 at 10 uM by KINOMEscan analysis relative to control
[8] = test system: Epidermal growth factor receptor (Homo sapiens), P00533 [G719C]; assay: Inhibition of T7 bacteriophage fused human EGFR G719C mutant at 10 uM by KINOMEscan analysis relative to control
[9] = biological target: Calcium/calmodulin-dependent protein kinase type II subunit delta (Homo sapiens) (UniProt Q13557); assay: Inhibition of T7 bacteriophage fused human CAMK2D at 10 uM by KINOMEscan analysis relative to control
[10] = biological target: Ephrin type-A receptor 3 (Homo sapiens) (UniProt P29320); assay: Inhibition of T7 bacteriophage fused human EPHA3 at 10 uM by KINOMEscan analysis relative to control
[11] = biological target: Proto-oncogene tyrosine-protein kinase ROS (Homo sapiens) (UniProt P08922); assay: Inhibition of T7 bacteriophage fused human ROS1 at 10 uM by KINOMEscan analysis relative to control
Proto-oncogene tyrosine-protein kinase ROS (Homo sapiens), sequence (P08922 whole entry, the tested form may be a part): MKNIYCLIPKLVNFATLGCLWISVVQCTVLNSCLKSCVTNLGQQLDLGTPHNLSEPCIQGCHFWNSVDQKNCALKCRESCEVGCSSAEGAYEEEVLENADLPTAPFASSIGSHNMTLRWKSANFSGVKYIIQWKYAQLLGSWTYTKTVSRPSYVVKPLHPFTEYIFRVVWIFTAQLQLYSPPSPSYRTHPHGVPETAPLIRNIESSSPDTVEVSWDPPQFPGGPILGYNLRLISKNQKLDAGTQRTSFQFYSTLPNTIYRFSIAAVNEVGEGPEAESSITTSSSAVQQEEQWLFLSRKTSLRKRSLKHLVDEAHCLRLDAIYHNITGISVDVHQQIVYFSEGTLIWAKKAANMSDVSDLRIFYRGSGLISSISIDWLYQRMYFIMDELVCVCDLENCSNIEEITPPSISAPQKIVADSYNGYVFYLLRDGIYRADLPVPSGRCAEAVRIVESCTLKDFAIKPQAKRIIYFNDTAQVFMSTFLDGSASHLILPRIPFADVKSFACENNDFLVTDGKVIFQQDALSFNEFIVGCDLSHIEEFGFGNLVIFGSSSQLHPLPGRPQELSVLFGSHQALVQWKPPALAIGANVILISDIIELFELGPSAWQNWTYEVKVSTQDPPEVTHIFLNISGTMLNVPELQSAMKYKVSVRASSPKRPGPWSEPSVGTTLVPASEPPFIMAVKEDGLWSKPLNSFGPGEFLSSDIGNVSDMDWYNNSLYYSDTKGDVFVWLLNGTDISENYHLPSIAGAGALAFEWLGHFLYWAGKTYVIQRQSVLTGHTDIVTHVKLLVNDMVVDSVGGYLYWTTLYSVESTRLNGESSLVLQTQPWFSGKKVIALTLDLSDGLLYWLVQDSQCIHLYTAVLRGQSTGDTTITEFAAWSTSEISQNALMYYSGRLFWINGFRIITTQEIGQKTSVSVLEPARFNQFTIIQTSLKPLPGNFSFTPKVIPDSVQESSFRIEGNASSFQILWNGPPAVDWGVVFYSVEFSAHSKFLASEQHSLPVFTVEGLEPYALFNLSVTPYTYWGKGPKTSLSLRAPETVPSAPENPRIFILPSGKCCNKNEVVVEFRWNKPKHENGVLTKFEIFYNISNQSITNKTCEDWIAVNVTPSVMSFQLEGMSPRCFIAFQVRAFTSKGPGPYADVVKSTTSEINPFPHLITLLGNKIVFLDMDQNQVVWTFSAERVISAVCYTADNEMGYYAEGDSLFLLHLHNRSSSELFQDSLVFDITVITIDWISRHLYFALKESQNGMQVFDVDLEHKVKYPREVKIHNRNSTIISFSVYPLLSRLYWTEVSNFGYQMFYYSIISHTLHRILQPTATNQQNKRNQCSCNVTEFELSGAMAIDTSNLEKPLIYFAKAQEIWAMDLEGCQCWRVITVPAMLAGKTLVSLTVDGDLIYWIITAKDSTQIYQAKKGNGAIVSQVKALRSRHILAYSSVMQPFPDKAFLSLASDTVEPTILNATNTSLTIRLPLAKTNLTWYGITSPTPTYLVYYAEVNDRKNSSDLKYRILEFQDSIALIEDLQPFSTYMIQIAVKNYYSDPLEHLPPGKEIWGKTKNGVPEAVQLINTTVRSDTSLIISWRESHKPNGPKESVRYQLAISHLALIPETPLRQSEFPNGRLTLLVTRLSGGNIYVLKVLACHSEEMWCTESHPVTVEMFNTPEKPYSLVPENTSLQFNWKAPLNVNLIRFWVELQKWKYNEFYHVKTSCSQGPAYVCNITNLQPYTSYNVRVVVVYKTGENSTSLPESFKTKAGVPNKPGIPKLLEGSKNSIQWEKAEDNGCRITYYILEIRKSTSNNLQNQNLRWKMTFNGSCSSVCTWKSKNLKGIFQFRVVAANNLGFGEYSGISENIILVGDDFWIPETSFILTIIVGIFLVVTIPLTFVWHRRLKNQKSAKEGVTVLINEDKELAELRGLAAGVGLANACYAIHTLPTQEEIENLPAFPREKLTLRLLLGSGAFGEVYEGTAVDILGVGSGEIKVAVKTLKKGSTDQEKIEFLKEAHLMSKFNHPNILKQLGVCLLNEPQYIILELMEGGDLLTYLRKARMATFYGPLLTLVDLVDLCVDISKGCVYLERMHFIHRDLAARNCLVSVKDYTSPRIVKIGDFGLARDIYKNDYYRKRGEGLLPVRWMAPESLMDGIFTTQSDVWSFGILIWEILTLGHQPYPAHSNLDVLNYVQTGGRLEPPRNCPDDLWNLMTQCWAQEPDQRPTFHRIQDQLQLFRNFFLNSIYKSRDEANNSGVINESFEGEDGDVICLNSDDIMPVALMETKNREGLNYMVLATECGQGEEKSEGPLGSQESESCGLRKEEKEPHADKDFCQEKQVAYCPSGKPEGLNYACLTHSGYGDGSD

[12] = biological target: cAMP-dependent protein kinase catalytic subunit PRKX (Homo sapiens) (UniProt P51817); assay: Inhibition of T7 bacteriophage fused human PRKX at 10 uM by KINOMEscan analysis relative to control
[13] = biological target: Serine/threonine-protein kinase PLK1 (Homo sapiens) (UniProt P53350); assay: Inhibition of T7 bacteriophage fused human PLK1 at 10 uM by KINOMEscan analysis relative to control
[14] = biological target: Serine/threonine-protein kinase B-raf (Homo sapiens) (UniProt P15056); assay: Inhibition of T7 bacteriophage fused human BRAF at 10 uM by KINOMEscan analysis relative to control
[15] = biological target: Discoidin domain-containing receptor 2 (Homo sapiens) (UniProt Q16832); assay: Inhibition of T7 bacteriophage fused human DDR2 at 10 uM by KINOMEscan analysis relative to control
[16] = test system: Mast/stem cell growth factor receptor Kit (Homo sapiens), P10721 [D816V]; assay: Inhibition of T7 bacteriophage fused human KIT D816V mutant at 10 uM by KINOMEscan analysis relative to control
[17] = test system: Hepatocyte growth factor receptor (Homo sapiens), P08581 [M1250T]; assay: Inhibition of T7 bacteriophage fused human MET M1250T mutant at 10 uM by KINOMEscan analysis relative to control; values are per cent of control
[18] = biological target: Mitogen-activated protein kinase kinase kinase 6 (Homo sapiens) (UniProt O95382); assay: Inhibition of T7 bacteriophage fused human ASK2 at 10 uM by KINOMEscan analysis relative to control
[19] = biological target: Tyrosine-protein kinase ABL1 (Homo sapiens) (UniProt P00519); assay: Inhibition of T7 bacteriophage fused human nonphosphorylated ABL1 at 10 uM by KINOMEscan analysis relative to control
[20] = biological target: Interleukin-1 receptor-associated kinase 1 (Homo sapiens) (UniProt P51617); assay: Inhibition of T7 bacteriophage fused human IRAK1 at 10 uM by KINOMEscan analysis relative to control
[21] = biological target: cGMP-dependent protein kinase 2 (Homo sapiens) (UniProt Q13237); assay: Inhibition of T7 bacteriophage fused human PRKG2 at 10 uM by KINOMEscan analysis relative to control
[22] = biological target: Mitogen-activated protein kinase 8 (Homo sapiens) (UniProt P45983); assay: Inhibition of T7 bacteriophage fused human JNK1 at 10 uM by KINOMEscan analysis relative to control; values are per cent of control
Mitogen-activated protein kinase 8 (Homo sapiens), sequence (P45983 whole entry, the tested form may be a part): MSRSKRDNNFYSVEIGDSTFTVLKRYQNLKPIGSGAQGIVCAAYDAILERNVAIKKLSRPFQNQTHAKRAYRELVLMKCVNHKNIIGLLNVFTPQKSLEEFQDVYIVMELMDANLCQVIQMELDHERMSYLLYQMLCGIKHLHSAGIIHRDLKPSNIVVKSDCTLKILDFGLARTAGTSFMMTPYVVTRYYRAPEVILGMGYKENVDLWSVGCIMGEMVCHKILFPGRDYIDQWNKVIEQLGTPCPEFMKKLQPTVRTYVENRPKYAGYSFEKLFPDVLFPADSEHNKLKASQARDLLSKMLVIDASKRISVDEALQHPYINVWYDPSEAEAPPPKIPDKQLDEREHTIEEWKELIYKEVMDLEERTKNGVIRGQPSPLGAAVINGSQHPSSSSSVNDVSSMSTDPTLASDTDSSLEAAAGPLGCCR

[23] = biological target: ALK tyrosine kinase receptor (Homo sapiens) (UniProt Q9UM73); assay: Inhibition of T7 bacteriophage fused human ALK at 10 uM by KINOMEscan analysis relative to control
ALK tyrosine kinase receptor (Homo sapiens), sequence (Q9UM73 19-1620 limits assumed): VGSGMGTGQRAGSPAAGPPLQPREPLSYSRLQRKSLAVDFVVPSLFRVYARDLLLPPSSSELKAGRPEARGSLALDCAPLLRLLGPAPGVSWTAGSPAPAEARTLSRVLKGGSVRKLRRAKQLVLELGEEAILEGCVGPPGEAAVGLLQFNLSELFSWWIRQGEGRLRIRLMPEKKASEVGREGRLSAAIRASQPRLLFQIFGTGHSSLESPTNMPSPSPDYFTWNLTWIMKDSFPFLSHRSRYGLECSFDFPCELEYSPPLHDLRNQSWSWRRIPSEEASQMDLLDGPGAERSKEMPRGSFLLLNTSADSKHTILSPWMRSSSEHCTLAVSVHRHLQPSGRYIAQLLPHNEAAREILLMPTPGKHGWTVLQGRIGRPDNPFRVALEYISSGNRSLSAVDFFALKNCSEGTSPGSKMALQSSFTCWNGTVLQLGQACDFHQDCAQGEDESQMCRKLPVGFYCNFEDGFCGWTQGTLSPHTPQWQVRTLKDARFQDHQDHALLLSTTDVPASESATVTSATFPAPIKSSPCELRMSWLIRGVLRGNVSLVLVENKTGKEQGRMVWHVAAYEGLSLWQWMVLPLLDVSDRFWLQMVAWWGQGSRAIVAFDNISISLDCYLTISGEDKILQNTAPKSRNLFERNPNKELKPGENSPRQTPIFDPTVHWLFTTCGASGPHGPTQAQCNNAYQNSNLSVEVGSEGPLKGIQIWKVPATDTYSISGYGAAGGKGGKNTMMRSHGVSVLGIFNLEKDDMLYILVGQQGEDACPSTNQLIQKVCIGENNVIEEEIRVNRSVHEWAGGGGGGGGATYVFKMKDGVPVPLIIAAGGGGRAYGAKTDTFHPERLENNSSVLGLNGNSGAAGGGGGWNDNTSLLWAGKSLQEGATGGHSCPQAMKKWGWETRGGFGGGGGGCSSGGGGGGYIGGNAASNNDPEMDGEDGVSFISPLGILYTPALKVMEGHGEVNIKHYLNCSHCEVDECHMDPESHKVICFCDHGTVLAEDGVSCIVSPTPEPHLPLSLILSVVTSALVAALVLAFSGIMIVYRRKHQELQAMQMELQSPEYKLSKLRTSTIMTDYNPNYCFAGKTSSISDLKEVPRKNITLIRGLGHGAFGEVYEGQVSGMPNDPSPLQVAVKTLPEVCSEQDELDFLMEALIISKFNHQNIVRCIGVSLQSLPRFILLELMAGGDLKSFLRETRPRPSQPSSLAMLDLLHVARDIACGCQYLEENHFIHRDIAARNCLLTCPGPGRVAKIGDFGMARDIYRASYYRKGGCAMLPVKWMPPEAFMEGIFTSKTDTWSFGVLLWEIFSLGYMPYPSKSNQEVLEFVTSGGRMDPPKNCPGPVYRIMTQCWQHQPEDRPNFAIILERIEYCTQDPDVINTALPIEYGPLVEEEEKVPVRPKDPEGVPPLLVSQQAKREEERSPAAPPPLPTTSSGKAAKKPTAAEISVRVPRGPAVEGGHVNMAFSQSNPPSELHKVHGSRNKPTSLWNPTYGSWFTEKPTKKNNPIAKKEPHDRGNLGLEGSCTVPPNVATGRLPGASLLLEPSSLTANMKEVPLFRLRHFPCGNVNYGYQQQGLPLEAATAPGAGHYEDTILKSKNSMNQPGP

[24] = biological target: Calcium/calmodulin-dependent protein kinase type 1D (Homo sapiens) (UniProt Q8IU85); assay: Inhibition of T7 bacteriophage fused human CAMK1D at 10 uM by KINOMEscan analysis relative to control
Calcium/calmodulin-dependent protein kinase type 1D (Homo sapiens), sequence (Q8IU85 whole entry, looked up, the tested form may be a part): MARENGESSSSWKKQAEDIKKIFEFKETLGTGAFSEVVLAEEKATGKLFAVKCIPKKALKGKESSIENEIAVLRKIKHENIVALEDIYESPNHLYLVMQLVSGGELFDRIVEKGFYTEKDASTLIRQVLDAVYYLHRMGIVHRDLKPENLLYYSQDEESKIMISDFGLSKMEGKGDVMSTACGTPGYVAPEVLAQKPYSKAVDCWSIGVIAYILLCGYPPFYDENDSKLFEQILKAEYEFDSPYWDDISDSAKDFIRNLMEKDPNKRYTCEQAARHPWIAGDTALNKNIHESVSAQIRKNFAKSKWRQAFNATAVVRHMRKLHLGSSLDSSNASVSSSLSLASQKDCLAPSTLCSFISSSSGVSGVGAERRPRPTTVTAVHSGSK

[25] = biological target: Serine/threonine-protein kinase BRSK2 (Homo sapiens) (UniProt Q8IWQ3); assay: Inhibition of T7 bacteriophage fused human BRSK2 at 10 uM by KINOMEscan analysis relative to control
[26] = biological target: Receptor tyrosine-protein kinase erbB-4 (Homo sapiens) (UniProt Q15303); assay: Inhibition of T7 bacteriophage fused human ERBB4 at 10 uM by KINOMEscan analysis relative to control
[27] = biological target: Atypical kinase COQ8B, mitochondrial (Homo sapiens) (UniProt Q96D53); assay: Inhibition of T7 bacteriophage fused human ADCK4 at 10 uM by KINOMEscan analysis relative to control
[28] = biological target: Tyrosine-protein kinase Fes/Fps (Homo sapiens) (UniProt P07332); assay: Inhibition of T7 bacteriophage fused human FES at 10 uM by KINOMEscan analysis relative to control; values are per cent of control
[29] = biological target: Dual specificity mitogen-activated protein kinase kinase 6 (Homo sapiens) (UniProt P52564); assay: Inhibition of T7 bacteriophage fused human MEK6 at 10 uM by KINOMEscan analysis relative to control; values are per cent of control
Dual specificity mitogen-activated protein kinase kinase 6 (Homo sapiens), sequence (P52564 whole entry, the tested form may be a part): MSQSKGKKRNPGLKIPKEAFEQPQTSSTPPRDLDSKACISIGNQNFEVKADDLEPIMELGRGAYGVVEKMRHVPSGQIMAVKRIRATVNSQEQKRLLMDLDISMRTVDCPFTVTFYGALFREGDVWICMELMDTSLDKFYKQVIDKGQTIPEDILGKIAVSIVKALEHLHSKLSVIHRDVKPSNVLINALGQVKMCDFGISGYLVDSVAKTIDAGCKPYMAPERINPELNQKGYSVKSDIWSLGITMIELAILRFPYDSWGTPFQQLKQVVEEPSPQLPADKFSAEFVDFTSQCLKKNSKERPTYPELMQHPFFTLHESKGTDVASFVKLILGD

[30] = biological target: Cyclin-dependent kinase 2 (Homo sapiens) (UniProt P24941); assay: Inhibition of T7 bacteriophage fused human CDK2 at 10 uM by KINOMEscan analysis relative to control
[31] = biological target: Protein kinase C eta type (Homo sapiens) (UniProt P24723); assay: Inhibition of T7 bacteriophage fused human PRKCH at 10 uM by KINOMEscan analysis relative to control

COc1cc(N2CCC(N3CCN(C)CC3)CC2)ccc1Nc1ncc2c(n1)N(C)c1ccccc1C(=O)N2C
inhibition [1]: 100%
inhibition [2]: 62%
residual activity [3]: 93%
inhibition [4]: 95%
residual activity [5]: 59%
inhibition [6]: 100%
inhibition [7]: 100%
inhibition [8]: 100%
inhibition [9]: 28%
inhibition [10]: 100%
inhibition [11]: 12%
inhibition [12]: 99%
inhibition [13]: 0.7%
inhibition [14]: 81%
inhibition [15]: 100%
inhibition [16]: 72%
residual activity [17]: 96%
inhibition [18]: 100%
inhibition [19]: 100%
inhibition [20]: 100%
inhibition [21]: 74%
residual activity [22]: 95%
inhibition [23]: 13%
inhibition [24]: 69%
inhibition [25]: 64%
inhibition [26]: 100%
inhibition [27]: 94%
residual activity [28]: 84%
residual activity [29]: 83%
inhibition [30]: 100%
inhibition [31]: 100%

— ChEMBL document CHEMBL5678810
